The source of these data is ChEMBL document CHEMBL1909046, “DrugMatrix in vitro pharmacology data”.

In general, IC50 refers to the midpoint of a concentration-inhibition curve.

Test [1] addresses T1, C-C chemokine receptor type 4 (Homo sapiens, UniProt P51679).
T1 sequence (P51679 whole entry): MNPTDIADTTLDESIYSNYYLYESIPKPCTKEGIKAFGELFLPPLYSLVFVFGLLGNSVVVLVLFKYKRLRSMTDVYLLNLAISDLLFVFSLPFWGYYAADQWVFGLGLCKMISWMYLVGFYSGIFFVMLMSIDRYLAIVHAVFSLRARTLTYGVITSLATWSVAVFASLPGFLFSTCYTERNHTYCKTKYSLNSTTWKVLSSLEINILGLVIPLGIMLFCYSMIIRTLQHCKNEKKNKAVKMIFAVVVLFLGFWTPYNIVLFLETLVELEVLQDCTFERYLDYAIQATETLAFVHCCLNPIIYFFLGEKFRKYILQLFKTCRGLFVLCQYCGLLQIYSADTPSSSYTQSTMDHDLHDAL
It counts as cell membranes, Membrane. The settings on record: chem-1.

Test [2] can be described thus: DRUGMATRIX: Nicotinic Acetylcholine radioligand binding (ligand: [125I] Epibatidine). The format is cell membranes, Membrane. As to conditions: imr-32; Not Active = under 50% inhibition at 10 µM.
The target in test [3] is Mitogen-activated protein kinase 14 (Homo sapiens, UniProt Q16539). More on the design: species or system Escherichia coli.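 Also: inhibition of p38alpha enzyme activity in a biochemical kinase assay, with myelin basic protein serving as substrate; in other assays of this panel Not Active means under 50% inhibition at 10 µM.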
Chain of Mitogen-activated protein kinase 14 (Q16539 whole entry): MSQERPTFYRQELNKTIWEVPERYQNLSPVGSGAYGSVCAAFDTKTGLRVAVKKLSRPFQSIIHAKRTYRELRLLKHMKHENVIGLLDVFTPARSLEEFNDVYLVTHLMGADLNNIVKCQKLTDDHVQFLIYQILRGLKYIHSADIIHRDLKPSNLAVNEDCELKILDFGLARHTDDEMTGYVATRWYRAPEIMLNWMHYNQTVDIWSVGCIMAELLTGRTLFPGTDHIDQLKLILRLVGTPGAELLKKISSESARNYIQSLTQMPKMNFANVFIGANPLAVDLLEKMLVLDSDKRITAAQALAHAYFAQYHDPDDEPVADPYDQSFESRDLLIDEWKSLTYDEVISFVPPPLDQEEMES
Test [4] can be described thus: DRUGMATRIX: Phosphodiesterase PDE4 enzyme inhibition (substrate: [3H]cAMP + cAMP). The settings on record: u-937; Not Active = under 50% inhibition at 10 µM.
For test [5], the target named is Epidermal growth factor receptor (Homo sapiens, UniProt P00533). Kind of test: DRUGMATRIX: Protein Tyrosine Kinase, EGF Receptor enzyme inhibition (substrate: Poly(Glu:Tyr)). It counts as cell-based, Insect cells. As to conditions: Not Active = under 50% inhibition at 10 µM.
Chain of Epidermal growth factor receptor (P00533 whole entry): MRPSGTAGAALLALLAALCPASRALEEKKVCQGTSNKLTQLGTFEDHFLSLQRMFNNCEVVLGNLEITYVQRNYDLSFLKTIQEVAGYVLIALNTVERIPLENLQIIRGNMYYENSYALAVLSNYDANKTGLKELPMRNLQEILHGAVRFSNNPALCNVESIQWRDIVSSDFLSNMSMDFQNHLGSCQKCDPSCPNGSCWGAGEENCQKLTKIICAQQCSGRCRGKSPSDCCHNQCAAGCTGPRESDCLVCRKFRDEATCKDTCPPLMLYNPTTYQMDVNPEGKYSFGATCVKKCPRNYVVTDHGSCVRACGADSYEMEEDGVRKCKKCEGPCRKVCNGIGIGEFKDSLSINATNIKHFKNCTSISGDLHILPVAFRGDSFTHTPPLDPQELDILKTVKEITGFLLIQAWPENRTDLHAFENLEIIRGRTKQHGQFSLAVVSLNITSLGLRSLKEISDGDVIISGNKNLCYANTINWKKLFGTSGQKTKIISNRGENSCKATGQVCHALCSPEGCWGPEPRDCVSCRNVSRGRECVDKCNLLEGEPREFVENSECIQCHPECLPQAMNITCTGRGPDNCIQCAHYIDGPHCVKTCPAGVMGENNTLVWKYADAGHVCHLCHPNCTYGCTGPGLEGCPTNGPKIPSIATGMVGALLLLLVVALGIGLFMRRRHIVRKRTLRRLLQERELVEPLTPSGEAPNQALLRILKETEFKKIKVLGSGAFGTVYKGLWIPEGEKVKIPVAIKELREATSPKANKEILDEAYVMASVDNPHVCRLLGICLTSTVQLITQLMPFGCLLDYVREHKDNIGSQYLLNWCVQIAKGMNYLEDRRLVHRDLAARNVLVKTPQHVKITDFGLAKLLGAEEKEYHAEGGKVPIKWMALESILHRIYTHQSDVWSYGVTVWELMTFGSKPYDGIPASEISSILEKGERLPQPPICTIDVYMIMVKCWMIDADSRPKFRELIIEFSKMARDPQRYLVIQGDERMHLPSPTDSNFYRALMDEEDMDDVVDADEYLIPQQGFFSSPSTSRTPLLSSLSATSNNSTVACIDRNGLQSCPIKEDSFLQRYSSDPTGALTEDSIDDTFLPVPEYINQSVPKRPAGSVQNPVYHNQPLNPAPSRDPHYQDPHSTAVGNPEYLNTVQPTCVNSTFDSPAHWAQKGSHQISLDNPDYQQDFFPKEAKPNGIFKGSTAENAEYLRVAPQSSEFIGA
Test [6] can be described thus: DRUGMATRIX: Platelet-Derived Growth Factor (PDGF) radioligand binding (ligand: [125I] PDGF). The format is cell-based. As to conditions: nih3t3; Not Active = under 50% inhibition at 10 µM.
Test [7] can be described thus: DRUGMATRIX: Glutamate, AMPA radioligand binding (ligand: [3H] AMPA). The format is cell membranes, Rattus norvegicus, Wistar, Cerebral cortex, Membrane. The settings on record: Not Active = under 50% inhibition at 10 µM.
Test [8] addresses T2, B2 bradykinin receptor (Homo sapiens, UniProt P30411).
T2 sequence (P30411 whole entry): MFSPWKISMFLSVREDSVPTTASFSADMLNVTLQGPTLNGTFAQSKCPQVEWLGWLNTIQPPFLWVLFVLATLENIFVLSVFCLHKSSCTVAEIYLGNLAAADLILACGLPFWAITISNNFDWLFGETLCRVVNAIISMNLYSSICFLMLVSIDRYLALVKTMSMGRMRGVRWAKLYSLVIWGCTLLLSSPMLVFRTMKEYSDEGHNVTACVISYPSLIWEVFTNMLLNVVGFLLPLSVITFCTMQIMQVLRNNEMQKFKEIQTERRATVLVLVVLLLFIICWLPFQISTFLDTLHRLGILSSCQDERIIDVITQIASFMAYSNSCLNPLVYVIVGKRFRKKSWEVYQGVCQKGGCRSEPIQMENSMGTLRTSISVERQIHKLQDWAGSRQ
The format is cell membranes, Membrane. The settings on record: chem-1.

Regarding `Cc1c(C)c2c(c(C)c1O)CCC(C)(CN1CCN(c3cc(N4CCCC4)nc(N4CCCC4)n3)CC1)O2` (centres undefined), the IC50 entry was “Not Active” in test [1]; “Not Active” in test [2]; 5.6 µM in test [3] (read-out: IC50); “Not Active” in test [4]; “Not Active” in test [5] (insect cells); “Not Active” in test [6]. The IC50 entry in test [7] and in test [8] was “Not Active” throughout. The Ki result in test [2], in test [4], in test [6] and in test [7] was “Not Active” throughout.
Take `COc1ccc(CCN(C)CCCC(C#N)(c2ccc(OC)c(OC)c2)C(C)C)cc1OC` (centres undefined): the concentration for half-maximal inhibition (IC50) result in test [1], in test [2], in test [3], in test [4], in test [5] (insect cells) and in test [6] was “Not Active” in each case. The IC50 result in test [7] and in test [8] was “Not Active” in each case. The Ki result in test [2], in test [4], in test [6] and in test [7] was “Not Active” throughout.
In the case of `CC(C)Cc1ccc([C@@H](C)C(=O)O)cc1` [(R)-IBUPROPHEN], the concentration for half-maximal inhibition (IC50) result in test [1], in test [2], in test [3], in test [4], in test [5] (insect cells) and in test [6] was “Not Active” throughout. For the same compound, the IC50 entry in test [7] and in test [8] was “Not Active” in each case. Also, the Ki result in test [2], in test [4], in test [6] and in test [7] was “Not Active” in each case.
`CN(C)CCOC(c1ccccc1)c1ccccc1` [DIPHENHYDRAMINE]: the IC50 entry in test [1], in test [3], in test [5] (insect cells) and in test [8] was “Not Active” in each case.
As to `Clc1ccc(COC(Cn2ccnc2)c2ccc(Cl)cc2Cl)cc1` (centres undefined) [ECONAZOLE], the IC50 entry in test [1] is “Not Active”; in test [3], “Not Active”; in test [5] (read-out: IC50), 32.4 µM; in test [8], “Not Active”.
`CCN(CC)CCOc1ccc(/C(=C(/Cl)c2ccccc2)c2ccccc2)cc1` [ENCLOMIPHENE]: the IC50 result in test [1] was “Not Active”; in test [3], “Not Active”; in test [5] (read-out: IC50), 1.05 µM; in test [8], “Not Active”.
For `Fc1ccc(C(c2ccc(F)cc2)N2CCN(C/C=C/c3ccccc3)CC2)cc1` [FLUNARIZINE], the IC50 entry in test [1], in test [3], in test [5] (insect cells) and in test [8] was “Not Active” in each case.
For `CNCCC(Oc1ccc(C(F)(F)F)cc1)c1ccccc1` (centres undefined) [FLUOXETINE], the IC50 result in test [1], in test [3], in test [5] (insect cells) and in test [8] was “Not Active” each time.
In the case of `Cc1ccc(NC(=O)c2ccc(CN3CCN(C)CC3)cc2)cc1Nc1nccc(-c2cccnc2)n1` [IMATINIB], the IC50 result in test [1] and in test [8] was “Not Active” each time.
Regarding `CC(C)Oc1ccc2c(=O)c(-c3ccccc3)coc2c1` [IPRIFLAVONE], the concentration for half-maximal inhibition (IC50) result in test [1], in test [2], in test [3], in test [4], in test [5] (insect cells) and in test [6] was “Not Active” throughout. Besides, the concentration for half-maximal inhibition (IC50) result in test [7] and in test [8] was “Not Active” throughout. Besides, the Ki result in test [2], in test [4], in test [6] and in test [7] was “Not Active” in each case.
Consider `CN[C@H]1CC[C@@H](c2ccc(Cl)c(Cl)c2)c2ccccc21` [SERTRALINE], for which the IC50 result in test [1], in test [3], in test [5] (insect cells) and in test [8] was “Not Active” in each case.
